Experimental data from PubChem BioAssay AID1914 (Broad Institute, 2009).
Where “and” joins values, the source holds several entries; their conditions need not be identical. Equal values may be shown once. Results filed as inconclusive are left out. Calls of active or inactive are those of the source.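 Rule for the calls: active = Compounds whose fitted IC50 for cell-normalized streptokinase activity falls within a set log distance above the top dose; inactive = IC50 further above the top dose than that limit.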

These molecules were tested against S. pyogenes M1 GAS, streptokinase activity/viability, OD405, 6 h (assay: viability-normalized secreted streptokinase activity reduction – plasminogen activation absorbance, OD405, dose response (AID 1914)).
`Cc1ccc(C[n+]2c(-c3ccc(C)cc3)cc(-c3ccc(C)cc3)cc2-c2ccc(C)cc2)cc1` was tested, and the IC50 was 3.61 µM. For `Cc1ccc(C(O)(C(=O)NNc2ccc3ccccc3n2)c2ccc(C)cc2)cc1`, the IC50 was > 15 µM (inactive). `CCN1/C(=C\C=C\C2=[N+](CC)c3ccccc3C2(C)C)C(C)(C)c2ccccc21` was tested, and the IC50 was 15.6 µM. For `CN(C)c1ccnc2c[cH-]cc12.[Fe].c1ccc(-[c-]2[c-](-c3ccccc3)[c-](-c3ccccc3)[c-](-c3ccccc3)[c-]2-c2ccccc2)cc1` (stereo unspecified), the IC50 was 2.11 µM and 2.6 µM. `CNC(CC(C)C)C(=O)NC1C(=O)NC(CC(N)=O)C(=O)NC2C(=O)NC3C(=O)NC(C(=O)NC(C(=O)O)c4cc(O)cc(O)c4-c4cc3ccc4O)C(O)c3ccc(c(Cl)c3)Oc3cc2cc(c3OC2OC(CO)C(O)C(O)C2OC2CC(C)(N)C(O)C(C)O2)Oc2ccc(cc2Cl)C1O` (stereo unspecified) was tested, and the IC50 was > 15 µM (inactive). With `CCCCCCCCCCCCCCCCn1cc[n+](C)c1` the IC50 was > 15 µM (inactive).
